Data set [1] in a line: Absorption in a Caco-2 cells model. Type of data set: in vitro ADME. The following applies: human. As to the method:
Absorption of the compounds of formula (I) was tested in a Caco-2 cells model (Gastroenterology 1989, 96, 736): […]

In data set [2] the test system is 14C-cholesterol absorption. In words: In Vivo Testing of Cholesterol Absorption Inhibitors (A). To be noted: 0.2 μmol/kg by gavage, procedure A, C57BL/6 female mice. As to the method:
In Vivo Testing of Cholesterol Absorption Inhibitors (A)
C57BL/6 female mice were maintained on regular chow diet and housed in individual cages to collect faeces. Mice were fasted for 3 hours and then gavaged with vehicle or compound. Half an hour later the mice were gavaged with radiolabelled cholesterol. Six hours after the ^14C-cholesterol gavage blood samples were taken via the tail and plasma prepared to determine how much cholesterol were absorbed. 24 hours after the gavage of ^14C-cholesterol the mice were bled and plasma were prepared for analysis. Faeces were collected for 24 hours to assess absorption efficiency.

From patent US7842684B2, “Diphenylazetidinone derivatives possessing cholesterol absorption inhibitor activity” (AstraZeneca AB, priority 2006, dated 2010) come the findings set out here.

A word on the Papp: it is a coefficient for how fast a substance crosses the barrier. In data set [1], `CS(=O)(=O)NCC#Cc1ccc(N2C(=O)[C@H](SC[C@H](O)c3ccc(F)cc3)[C@H]2c2ccc(OCC(=O)NCC(=O)N[C@H](CC3CCCCC3)C(=O)O)cc2)cc1` [Example 1, N-({4-[(2R,3R)-3-{[(2R)-2-(4-fluorophenyl)-2-hydroxyethyl]thio}-1-(4-{3-[(methylsulfonyl)amino]prop-1-yn-1-yl}phenyl)-4-oxoazetidin-2-yl]phenoxy}acetyl)glycyl-3-cyclohexyl-D-alanine] registered an apparent permeability coefficient (Papp) of 0.04 ×10⁻⁶ cm/s. In data set [1], `CC(C)[C@@H](NC(=O)CNC(=O)COc1ccc([C@@H]2[C@@H](SC[C@H](O)c3ccc(F)cc3)C(=O)N2c2ccc(C#CCNS(C)(=O)=O)cc2)cc1)C(=O)O` [Example 2, N-({4-[(2R,3R)-3-{[(2R)-2-(4-fluorophenyl)-2-hydroxyethyl]thio}-1-(4-{3-[(methylsulfonyl)amino]prop-1-yn-1-yl}phenyl)-4-oxoazetidin-2-yl]phenoxy}acetyl)glycyl-D-valine] returned a Papp of 0.02 ×10⁻⁶ cm/s. This Papp lies about 2-fold lower than the previous one.

For the compound `CS(=O)(=O)NCC#Cc1ccc(N2C(=O)[C@H](SC[C@H](O)c3ccc(F)cc3)[C@H]2c2ccc(OCC(=O)NCC(=O)O)cc2)cc1` [Example 6, N-({4-[(2R,3R)-3-{[(2R)-2-(4-fluorophenyl)-2-hydroxyethyl]thio}-1-(4-{3-[(methylsulfonyl)amino]prop-1-yn-1-yl}phenyl)-4-oxoazetidin-2-yl]phenoxy}acetyl)glycine], the “inhibition of 14C-cholesterol absorption” value in data set [2] is 90%.
